# Results published in patent US20240115649A1, “CASPASE INHIBITION TO ENHANCE REGENERATION AND REPAIR AFTER SKIN OR GUT INJURY AND TO TREAT BACTERIAL OR VIRAL INFECTIONS” (The Johns Hopkins University, priority 2020, published 2024).
# How the values were obtained:
# [1] = test system: P. aeruginosa strain Xen41; experiment: Bacterial growth curve kinetics, P. aeruginosa broth cultures; assay type: cell-based; conditions: 10, 100 and 1,000 μg/mL; vs vehicle
# [2] = test system: ASC specks; experiment: ASC speck formation in ASC-Citrine mice (in vivo FLI, PuLSA assay)
# [3] = test system: pMLKL, MLKL, ICAD; experiment: Western blot analysis of infected skin; assay type: in vivo, mice
# [4] = test system: DSS treated C57BL/J6 mice; experiment: DSS-induced colitis model; assay type: in vivo
# Description: Histology. Biopsies from mouse colon and skin tissue were removed and fixed in 4% paraformaldehyde overnight and then transferred to 70% ethanol. Samples were then submitted to the Johns Hopkins Oncology Tissue Services Core facility where they were embedded in paraffin. Tissue sections were obtained at 4pin thickness and mounted onto glass slides, followed by hematoxylin and eosin (H&E) staining.
# Colitis Model. In order to induce colitis, adult wild-type, Rnasel -A , and Il36r^−/− mice were fed up to 4% (w/v) 36-50 kDa dextran sodium sulfate (DSS) (MP Biomedicals, 160110) in sterile water^37. Weight changes were monitored and recorded every day. For rescue experiments using the pan-caspase inhibitor Q-VD-OPh, mice were treated at the same concentrations as in WIHN experiments and were injected intraperitoneally during the day when noticeable weight loss began to occur (˜day 3-4). Mice were eventually sacrificed and colon lengths were extracted for gross examination and downstream FACS and protein analysis.
# [5] = molecular target: Streptopain (speB) (Streptococcus pyogenes, UniProt P0C0J0); assay type: biochemical, S. pyogenes
# [6] = test system: mouse neutrophils; experiment: Neutrophil cultures with live S. aureus ± caspase inhibitors; conditions: Q-VD-OPH 10 μg/mL, live S. aureus 6 hours
# [7] = molecular target: T1, Staphopain B (sspB) (Staphylococcus aureus, UniProt P0C1S6); experiment: Protease activity assays and protein blot, Staphopain B; assay type: biochemical, S. aureus
# T1 construct: purchased CUSABIO
# [8] = test system: monocytes, macrophages and neutrophils isolated from the infected skin; experiment: Flow cytometry of single-cell suspensions from CA-MRSA-infected skin; assay type: in vivo, mice
# Protocol: Flow cytometry. 10-mm skin punch biopsies were collected, minced and enzymatically digested in 3 mL RPMI containing 100 μg/mL DNaseI (Sigma-Aldrich) and 1.67 Wunsch U/ml Liberase TL (Roche) for 1 hour at 37° C. and shaken at 140 rpm. Single-cell suspensions were obtained after filtering the digested samples through a 40-μm cell filter using a 3 mL syringe plunger and cells were then washed in RPMI. […] The cells were further labeled for intracellular pMLKL, which was detected via anti-pMLKL mAb that was biotinylated with Biotin conjugation/Fast/Type A kit (Abcam), as per manufacturer's instructions, along with other intracellular mAbs against IL-1β and TNF (Supplemental Table S1). […] For immunophenotyping of Langerhans cells and monocyte-derived dendritic cells (DCs), cells were first gated on CD45^+ and then CD207^+CD103^− (Langerhans cells) and CD45^+CD11c^+CD115^+ monocyte-derived DCs (FIG. 11), modified from previously described methods (61). The absolute numbers of the respective cell populations were calculated as (Total number of live cells X [% of cell population/100]).
# [9] = test system: neutrophils; experiment: Flow cytometry of skin of Q-VD-OPh-treated mice; assay type: in vivo; conditions: Q-VD-OPh i.p.; unwounded skin; vs vehicle controls
# Protocol: Flow Cytometry. Cell suspensions were prepared by digesting mouse skin tissue in a cocktail consisting of Liberase TL (Roche, 5401020001), DNase I (Sigma, DN25) and antibiotics (Invitrogen, 15140) in RPMI 1640 (Gibco, 11875093). For FACS, cells were washed and first viability stained using the Zombie Aqua dye (BioLegend, 423101). […] Finally, cells were resuspended in BD stabilizing fixative prior to FACS. All flow cytometry experiments were performed on a BD LSR II and downstream analysis of data was performed using Cytobank.
# [10] = test system: S. aureus USA300 LAC::lux; experiment: Bacterial growth curve kinetics, S. aureus broth cultures; assay type: cell-based; conditions: 10, 100 and 1,000 μg/mL; 10 hours; vs vehicle
# [11] = test system: neogenic hair follicles; experiment: Wound Induced Hair Neogenesis (WIHN) assay; assay type: in vivo, mice
# Protocol: Wound Induced Hair Neogenesis (WIHN) Assay. All in vivo experimental surgical procedures were performed as previously characterized ^1,2,6-8. In short, after exposure to vaporizing anesthesia (Baxter, Isoflurane) the dorsal side of male and female 3-week-old (21 days) mice were shaved at approximately 8-10 g of weight. Using surgical scissors, approximately 1.26 cm^2×1.25 cm^2 of skin was excised creating wounds deep into the fascia. At 3 days post-wounding, a single dose (50 μl) of 100 μg/mL high molecular weight (HMW) polyinosinic-polycytidylic acid (Poly (I:C)) (Invivogen, tlrl-pic) was administered underneath the scab site via injection in both wild-type and transgenic mice as previously described^2,8. For functional experiments characterizing IL-36 on WIHN, a single dose (50 μl) of 1 μg/mL recombinant mouse IL-36α protein (R&D Systems, 7059-ML/CF) was injected underneath the scab site at 7 days post-wounding. For rescue experiments using the small molecule, broad spectrum pan-caspase inhibitor, 20 ul of 5 mg/mL Q-VD-OPh (in DMSO) was diluted 130 μL of phosphate-buffered saline (PBS) (1.33 mM final concentration) and injected intraperitoneally in mice 24 hours prior to wounding and approximately 10 days after wounding (scab detachment).
# Immunofluorescence, immunocytochemistry, and immunohistochemistry.
# [12] = test system: S. pyogenes strain Xen20; assay type: cell-based; conditions: 10, 100 and 1,000 μg/mL; vs vehicle
# [13] = Q-VD-OPH treated TNF^−/− mice, day 1
# [14] = Q-VD-OPH treated WT mice, day 1
# [15] = TNF^−/− mice, day 1, vs untreated
# [16] = WT mice, infected skin day 1, vs untreated
# Streptopain (speB), sequence (P0C0J0 146-398 limits assumed): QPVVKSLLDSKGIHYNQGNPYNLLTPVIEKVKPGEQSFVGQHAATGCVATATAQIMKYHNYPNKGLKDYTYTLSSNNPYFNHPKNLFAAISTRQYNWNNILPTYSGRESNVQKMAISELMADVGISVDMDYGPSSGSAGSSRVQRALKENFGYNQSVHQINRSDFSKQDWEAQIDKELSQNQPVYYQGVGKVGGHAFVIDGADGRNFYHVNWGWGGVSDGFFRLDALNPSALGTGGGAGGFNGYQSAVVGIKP
# T1 sequence (P0C1S6 220-393): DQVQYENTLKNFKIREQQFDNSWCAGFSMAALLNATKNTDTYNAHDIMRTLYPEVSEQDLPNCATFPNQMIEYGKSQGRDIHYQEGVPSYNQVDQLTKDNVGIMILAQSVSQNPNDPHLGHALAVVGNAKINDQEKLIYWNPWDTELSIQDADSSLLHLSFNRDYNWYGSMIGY
smiles,measurement,setting,value
"CC(C)[C@H](NC(=O)c1ccc2ccccc2n1)C(=O)N[C@@H](CC(=O)O)C(=O)COc1c(F)cccc1F [Q-VD-OPH, Quinoline-val-asp-difluorophenoxymethyl ketone]",in vitro absorbance and bioluminescence,[1],no differences in in vitro absorbance and bioluminescence
same,in vivo ASC speck formation (in vivo FLI signals),"[2]; ASC-Citrine mice, 6 hours following Q-VD-OPH administration",virtually inhibited all in vivo ASC speck formation
same,percentage of total ASC-Citrine expression in live cells,"[2]; infected skin, day 1, treated vs untreated",not significantly different
same,percentage of cells with ASC-Specks (PuLSA assay),"[2]; infected skin, day 1, vs untreated",substantially reduced percentage of cells with ASC-Specks
same,necroptosis (pMLKL and MLKL expression),"[3]; TNF^−/− mice, day 1, vs untreated or Q-VD-OPH treated WT mice",reduced necroptosis
same,apoptosis (ICAD),"[3]; TNF^−/− mice, infected skin day 1",reduced apoptosis
same,apoptosis (ICAD),"[3]; WT mice, infected skin day 1",reduced apoptosis
same,"necroptosis (pMLKL, MLKL)","[3]; WT mice, infected skin day 1",increases necroptosis
same,gut shortening after DSS treatment,[4]; Il36r^−/− mice,does not rescue gut shortening
same,weight loss,"[4]; Il36r^−/− mice, DSS",does not rescue weight loss
same,IL-36α expression in the gut,[4]; WT mice,Increased IL-36α expression
same,neutrophil abundance in the blood or the gut,"[4]; regenerative phase following cessation of DSS, vs controls",no change in neutrophil abundance
same,DSS-induced weight loss,"[4]; wild-type mice, 4% DSS, Q-VD-OPh i.p. 1.33 mM, vs control",protected from DSS-induced weight loss
same,colon length and morphology,"[4]; wild-type mice, 4% DSS, Q-VD-OPh i.p., vs control",longer and better colon morphology
same,physical conformational changes or degradation of speB (protein blot),[5]; 2 hours at 37° C.,did not induce any physical conformational changes or cause degradation
same,activity of speB on gelatinase activity or elastin proteolysis,[5]; 20 hours,did not affect the activity
same,necroptosis (western blot for pMLKL and MLKL),[6],necroptosis was increased
same,percentages of TNF+ neutrophils,[6]; Emricasan 9 μg/mL,25.47%
same,viable cells (Zombie UV negative cells),"[6]; Emricasan 9 μg/mL, no significant differences vs no treatment",~50%
same,physical conformational changes or degradation of sspB (protein blot),[7]; 2 hours at 37° C.,did not induce any physical conformational changes or cause degradation
same,activity of sspB on gelatinase activity or elastin proteolysis,"[7]; Q-VD-OPH 10 μg/mL, 20 hours",did not affect the activity
same,pMLKL+ MFI,[8]; [13],540
same,"pMLKL+ total cells, absolute numbers",[8]; [13],1.5×10^4 cells
same,"pMLKL+ total cells, percentage",[8]; [13],15%
same,pMLKL+ MFI,[8]; [14],2250
same,"pMLKL+ total cells, absolute numbers",[8]; [14],1.0×10^5 cells
same,"pMLKL+ total cells, percentage",[8]; [14],81%
same,percentages and absolute number of macrophages,"[8]; TNF^−/− mice, day 1",statistically increased
same,percentages and absolute number of monocytes,"[8]; TNF^−/− mice, day 1, compared with Q-VD-OPH treated WT mice",no increase
same,"necroptosis (pMLKL+) total leukocytes: MFI, percentages and absolute numbers","[8]; TNF^−/− mice, day 1, vs TNF^−/− untreated",significantly greater
same,early apoptotic (Annexin V+) neutrophils,[8]; [15],significantly decreased
same,early apoptotic cells (Annexin V+) of total leukocytes,[8]; [15],significantly decreased
same,percentages and absolute number of neutrophils,"[8]; TNF^−/− mice, infected skin day 1, vs untreated or Q-VD-OPH treated WT mice",significantly reduced
same,intracellular pro-IL-1β: MFI and percentages of total leukocytes (CD45+pro-IL-1β+),"[8]; WT mice, day 1, especially macrophages and neutrophils but not monocytes",increased mean fluorescence intensity (MFI) and percentages of total leukocytes
same,TNF+ macrophages,"[8]; WT mice, day 1, vs untreated",significantly greater
same,TNF+ monocytes,"[8]; WT mice, day 1, vs untreated",significantly greater
same,TNF+ neutrophils,"[8]; WT mice, day 1, vs untreated",significantly greater
same,"TNF+ total leukocytes (CD45+TNF+): MFI, percentages and absolute number","[8]; WT mice, day 1, vs untreated",significantly greater
same,"early apoptotic (Annexin V+) monocytes, percentages and absolute numbers","[8]; WT mice, day 1, vs untreated",significantly decreased
same,"early apoptotic (Annexin V+) neutrophils, percentages and absolute numbers","[8]; WT mice, day 1, vs untreated",significantly decreased
same,"early apoptotic cells (Annexin V+) of total leukocytes, percentages and absolute numbers","[8]; WT mice, day 1, vs untreated",significantly decreased
same,necroptosis (pMLKL+) macrophages,"[8]; WT mice, day 1, vs untreated",significantly greater
same,"necroptosis (pMLKL+) total leukocytes: MFI, percentages and absolute numbers","[8]; WT mice, day 1, vs untreated",significantly greater
same,percentages and absolute numbers of neutrophils,[8]; [16],no differences
same,percentages of macrophages,[8]; [16],statistically increased
same,percentages of monocytes,[8]; [16],statistically increased
same,neutrophil levels in the skin,[9],higher neutrophil levels in the skin
same,"in vitro absorbance, bioluminescence and CFU (direct antibacterial activity)",[10],"no differences in in vitro absorbance, bioluminescence and CFU"
same,WIHN,[11]; Il36r^−/− mice treated with Q-VD-OPh,do not
same,WIHN,"[11]; wild-type mice, Q-VD-OPh 1.33 mM i.p. 24 hours prior to and ~10 days after wounding, vs vehicle",more WIHN
same,IL-36α in the epidermis of re-epithelialized wounds,"[11]; wild-type mice, Q-VD-OPh i.p., vs vehicle",higher levels of IL-36α in the epidermis of re-epithelialized wounds
same,in vitro absorbance and bioluminescence,[12],no differences in in vitro absorbance and bioluminescence
